Source: US9657071B2, “IgE peptide vaccine” (NIPPON ZENYAKU KOGYO CO., LTD., priority 2012, dated 2017)

Columns and labels:
peptide-specific IgG = assay: Peptide-specific IgG in serum of dogs given IgE peptide vaccine (ELISA); assay type: in vivo; details: dog
Description: The peptide used was MOUSE CH3-4-17-11 (mouse CH3 region amino acid sequence) (SEQ ID NO: 27). 2 mL (500 μg) of a solution of the peptide (concentration: 250 μg/mL) and 2 mL of a complete adjuvant (DIFCO ADJUVANT COMPLETE FREUND, Becton, Dickinson and Company Japan) were dispensed to microtubes. Liquids (4 mL per animal) emulsified by shaking for 15 minutes in a high-speed shaker were used as IgE peptide vaccines.
The animals used were 1 male and 7 females of 5- to 7-month-old beagles and were divided into an administration group (n=4; 08-33, 08-42, 08-43, and 08-44) and a non-administration group (n=4; 08-45, 08-46, 08-47, and 08-48).
The peptide was administered at days 0 (test start date), 14, and 28 in the first course and further at days 106 and 117 in the second course. The test substance was subcutaneously administered to the necks of the 4 animals in the administration group. The non-administration group was untreated.
At days 0, 14, 28, 42, 56, 70, 77, 84, 98, 106, 117, 131, 145, and 152 (4 time points (0, 14, 28, and 42) were excluded for the non-administration group), blood was collected from the jugular vein of each individual using a syringe. After separation of serum, the serum was used to measure peptide-specific IgG concentrations and IgE-specific IgG concentrations in the serum.
Each antigenic protein (MOUSE CH3-4-17-11 for peptide-specific IgG assay, and human IgE for IgE-specific IgG assay) was prepared at 1 μg/mL in an immobilization buffer (0.05 M carbonate buffer, pH 9.6), then added at a concentration of 100 μL/well to an ELISA plate, and left overnight at 4° C. The immobilization plate was washed once with PBS-T (0.05%). A blocking solution (4× Block Ace, Snow Brand Milk Products Co., Ltd.; UK-B80) was added thereto at a concentration of 200 μL/well. The plate was blocked by incubation at 37° C. for 1.5 hours. The serum was diluted 5000-fold with a diluent (PBS-T:Block Ace=9:1) and used. […] Then, the measurement was performed using a plate reader (Bio-Rad Laboratories, Inc.; model 680) (dual: measurement: 450 nm, control: 570 nm).

cat IgE = assay: Reactivity of serum of peptide-immunized rabbit with cat IgE recombinant CH3 (ELISA); assay type: in vivo; details: 500 μg peptide + complete adjuvant s.c.
Description: 2 mL of the 250 μg/mL peptide (a total of 500 μg) used in Example 2 was mixed with an equal amount of a complete adjuvant (a total of 4 mL). Each rabbit was immunized with this mixture by the subcutaneous administration (amount of the peptide: 500 μg) at day 0 and weeks 2, 4, 6, and 8. Blood was collected 5 weeks after the week-8 administration (week 13 counted from day 0). Booster immunization was performed at week 14 counted from day 0, and blood was further collected 2 weeks thereafter (week 16 counted from day 0). Antibody titers in the collected blood were measured by ELISA. The serum of a rabbit that received no peptide was used as a control.
ELISA was performed by the following method: each […] recombinant CH3 solution of dog IgE, human IgE, mouse IgE, dog IgG, and cat IgE was immobilized at a concentration of 100 μL/well (100 ng/well) to a plate. The serum collected from the immunized rabbit was used (×200 to ×102400) as a primary antibody. An enzyme-labeled anti-rabbit IgG antibody (Zymed Laboratories Inc.) was used as a secondary antibody.

[1] = test system: anti-dog IgE monoclonal antibodies; assay: Epitope analysis of synthetic IgE CH3 region peptides by ELISA; assay type: binding; details: peptide immobilized 100 ng/well, ELISA with anti-IgE monoclonal antibodies
Description: Epitope analysis was conducted on mouse monoclonal antibodies binding to a dog IgE antibody and rat monoclonal antibodies binding to dog and mouse IgE antibodies. Mouse anti-dog IgE antibodies (clone name: CCH3-4, CCH5-5, CCH3-12, CCH3-13, CCH3-14, and CCH3-15) were prepared from mice immunized with the dog IgE CH3 (Cε3) region gene. Also, anti-IgE monoclonal antibodies (clone name: X-1, X-2, CCH3-21, and CCH3-22) were prepared from rats immunized with the dog and mouse IgE CH3 (Cε3) region genes. These antibodies were used as samples to synthesize synthetic peptides (SEQ ID NOs: 2 to 20 and 22 to 26) of the dog and mouse IgE peptide CH3 (Cε3) regions consisting of the sequences shown in FIG. 1-1. The epitope analysis was conducted by ELISA. […] The anti-dog IgE monoclonal antibodies that responded to the peptide were detected using secondary antibodies (anti-mouse IgG HRP (horseradish peroxidase)-labeled antibody for the anti-dog IgE antibodies prepared using mice, and anti-rat IgG HRP-labeled antibody for the anti-dog IgE antibodies prepared using rats).

## QEKKTSVSASQWYTKHHNNATTSIT (listed as Mus musculus) [MOUSE CH3-4-17-11]
peptide-specific IgG; s.c., day 117 or later (second course)
  peptide-specific IgG concentrations in serum (O.D. values), one animal (08-44): ≥ 1.0 O.D.
peptide-specific IgG; day 77, p<0.05
  peptide-specific IgG in serum, administration group versus non-administration group: significantly higher
peptide-specific IgG; summary of FIG. 6
  level of IgG antibody against the peptide: increased
Cat IgE
  response of immobilized cat IgE to peptide-administered rabbit serum: responded
[1]
  epitope in IgE CH3 region peptide: peptide of an epitope region
